Experimental data as given in ChEMBL document CHEMBL2311340, “Chemical constituents from the fruit of Gardenia jasminoides and their inhibitory effects on nitric oxide production” (Bioorg Med Chem Lett, 2013).

system: RAW264.7; assay: Inhibition of nitric oxide production in lipopolysaccharide-activated mouse RAW264.7 cells by Griess reaction based method; format: functional, cell-based

Row | IC50 [µM] | Structure (SMILES)
1 | > 100 | COC(=O)C1=CO[C@@H](O[C@@H]2O[C@H](CO[C@H]3O[C@H](CO)[C@@H](O)[C@H](O)[C@H]3O)[C@@H](O)[C@H](O)[C@H]2O)[C@@H]2C(CO)=CC[C@H]12
2 | > 100 | COC(=O)C1=CO[C@@H](O[C@@H]2O[C@H](CO[C@@H]3OC[C@](O)(CO)[C@H]3O)[C@@H](O)[C@H](O)[C@H]2O)[C@@H]2C(CO)=CC[C@H]12
3 | > 100 | COC(=O)C1=CO[C@@H](O[C@@H]2O[C@H](CO[C@H]3OC[C@@H](O)[C@H](O)[C@H]3O)[C@@H](O)[C@H](O)[C@H]2O)[C@@H]2C(CO)=CC[C@H]12
4 | > 100 | COC(=O)C1=CO[C@@H](O[C@@H]2O[C@H](CO[C@@H]3O[C@@H](C)[C@H](O)[C@@H](O)[C@H]3O)[C@@H](O)[C@H](O)[C@H]2O)[C@@H]2C(CO)=CC[C@H]12
5 | > 100 | COC(=O)C1=CO[C@@H](O[C@@H]2O[C@H](CO)[C@@H](O)[C@H](O)[C@H]2O)[C@@H]2C(CO)=C[C@@H](O)[C@H]12
6 | > 100 | COC(=O)C1=CO[C@@H](O[C@@H]2O[C@H](CO)[C@@H](O[C@@H]3O[C@H](CO)[C@@H](O)[C@H](O)[C@H]3O)[C@H](O)[C@H]2O)[C@@H]2C(CO)=CC[C@H]12 [GENAMESIDE C]
7 | > 100 | COC(=O)C1=CO[C@@H](O[C@@H]2O[C@H](CO)[C@@H](O)[C@H](O)[C@H]2O)[C@@H]2C(CO[C@@H]3O[C@H](CO)[C@@H](O)[C@H](O)[C@H]3O)=CC[C@H]12 [GENAMESIDE D]
8 | > 100 | COC(=O)C1=CO[C@@H](O[C@@H]2O[C@H](CO[C@@H]3O[C@H](CO)[C@@H](O)[C@H](O)[C@H]3O)[C@@H](O)[C@H](O)[C@H]2O)[C@@H]2C(CO)=CC[C@H]12 [GENIPIN GENTIOBIOSIDE]

More lines, now with the values behind:

Row | Structure (SMILES) | IC50 [µM]
9 | CC(/C=C/C=C(\C)C(=O)O[C@@H]1O[C@H](CO)[C@@H](O)[C@H](O)[C@H]1O)=C\C=C\C=C(C)\C=C\C=C(/C)C(=O)O[C@@H]1O[C@H](CO[C@@H]2O[C@H](CO)[C@@H](O)[C@H](O)[C@H]2O)[C@@H](O)[C@H](O)[C@H]1O | > 100
10 | COC(=O)C1=CO[C@@H](O[C@@H]2O[C@H](CO[C@@H]3O[C@H](COC(=O)/C=C/c4ccc(O)c(O)c4)[C@@H](O)[C@H](O)[C@H]3O)[C@@H](O)[C@H](O)[C@H]2O)[C@@H]2C(CO)=CC[C@H]12 | > 100
11 | COC(=O)C1=CO[C@@H](O)[C@@H]2C(CO)=C[C@@H](O)[C@H]12 | 28.7
12 | CC(/C=C/C=C(\C)C(=O)O[C@@H]1O[C@H](CO[C@@H]2O[C@H](CO)[C@@H](O)[C@H](O)[C@H]2O)[C@@H](O)[C@H](O)[C@H]1O)=C\C=C\C=C(C)\C=C\C=C(/C)C(=O)O[C@@H]1O[C@H](CO[C@@H]2O[C@H](CO)[C@@H](O)[C@H](O)[C@H]2O)[C@@H](O)[C@H](O)[C@H]1O [CROCIN] | > 100
13 | COC(=O)C1=CO[C@@H](O)[C@@H]2C(CO)=CC[C@H]12 [GENIPIN] | 11.1
14 | COC(=O)C1=CO[C@@H](O[C@@H]2O[C@H](CO)[C@@H](O)[C@H](O)[C@H]2O)[C@@H]2C(CO)=CC[C@H]12 [GENIPOSIDE] | > 100
15 | CC1=C(C(=O)O[C@@H]2O[C@H](CO[C@@H]3O[C@H](CO)[C@@H](O)[C@H](O)[C@H]3O)[C@@H](O)[C@H](O)[C@H]2O)C(C)(C)CC=C1 [JASMINOSIDE R] | > 100
16 | CC1=C(C(=O)O[C@@H]2O[C@H](CO[C@@H]3O[C@H](CO)[C@@H](O)[C@H](O)[C@H]3O)[C@@H](O)[C@H](O)[C@H]2O)C(C)(C)CCC1 [JASMINOSIDE S] | > 100
17 | CC1=CC(=O)CC(C)(C)[C@H]1CO[C@@H]1O[C@H](CO[C@@H]2OC[C@](O)(CO)[C@H]2O)[C@@H](O)[C@H](O)[C@H]1O [JASMINOSIDE T] | > 100
18 | CC(/C=C/C=C(\C)C(=O)O)=C\C=C\C=C(C)\C=C\C=C(/C)C(=O)O [TRANSCROCETIN] | 5.99
